In the NIST ThermoML archive (doi:10.1021/je049595u):

Columns and labels:
[1] = Molar enthalpy of transition or fusion; conditions: Crystal
[2] = molar heat capacity at saturation pressure

Cc1cccc2cccnc12 [8-methylquinoline]
Conditions | mass density [kg/m3] | molar heat capacity [J/K/mol] | vapor or sublimation pressure [kPa]
315.61 K, Liquid, Inclined piston gauge | – | – | 0.0242
324.98 K, Liquid, Inclined piston gauge | – | – | 0.0466
334.99 K, Liquid, Inclined piston gauge | – | – | 0.0905
344.98 K, Liquid, Inclined piston gauge | – | – | 0.1674
354.98 K, Liquid, Inclined piston gauge | – | – | 0.2975
364.98 K, Liquid, Inclined piston gauge | – | – | 0.5091
374.98 K, Liquid, Inclined piston gauge | – | – | 0.8418
384.98 K, Liquid, Inclined piston gauge | – | – | 1.35
393.84 K, Liquid, Twin ebulliometer | – | – | 2.001
394.97 K, Liquid, Inclined piston gauge | – | – | 2.102
400.6 K, Liquid, Twin ebulliometer | – | – | 2.665
404.97 K, Liquid, Inclined piston gauge | – | – | 3.19
410.7 K, Liquid, Twin ebulliometer | – | – | 4.004
418.2 K, Liquid, Twin ebulliometer | – | – | 5.336
429.38 K, Liquid, Twin ebulliometer | – | – | 8.002
437.77 K, Liquid, Twin ebulliometer | – | – | 10.67
444.5 K, Liquid, Twin ebulliometer | – | – | 13.31
451.61 K, Liquid, Twin ebulliometer | – | – | 16.67
457.46 K, Liquid, Twin ebulliometer | – | – | 19.93
465.16 K, Liquid, Twin ebulliometer | – | – | 25.02
465.17 K, Liquid, Twin ebulliometer | – | – | 25.02
472.94 K, Liquid, Twin ebulliometer | – | – | 31.18
480.74 K, Liquid, Twin ebulliometer | – | – | 38.57
488.6 K, Liquid, Twin ebulliometer | – | – | 47.36
496.51 K, Liquid, Twin ebulliometer | – | – | 57.8
504.49 K, Liquid, Twin ebulliometer | – | – | 70.12
512.5 K, Liquid, Twin ebulliometer | – | – | 84.53
520.56 K, Liquid, Twin ebulliometer | – | – | 101.31
528.68 K, Liquid, Twin ebulliometer | – | – | 120.8
536.85 K, Liquid, Twin ebulliometer | – | – | 143.23
545.06 K, Liquid, Twin ebulliometer | – | – | 169
553.32 K, Liquid, Twin ebulliometer | – | – | 198.45
553.33 K, Liquid, Twin ebulliometer | – | – | 198.45
561.65 K, Liquid, Twin ebulliometer | – | – | 232
570.01 K, Liquid, Twin ebulliometer | – | – | 270
769.9 K, Gas, Measured as part of TC determination by DSC | 160.5 | – | –
775.8 K, Liquid, Measured as part of TC determination by DSC | 444.6 | – | –
784 K, Gas, Measured as part of TC determination by DSC | 244.7 | – | –
785.1 K, Liquid, Measured as part of TC determination by DSC | 349.8 | – | –
786 K, Gas, Measured as part of TC determination by DSC | 318.7 | – | –
[2], 460 K, Liquid | – | 289.36 | –
[2], 480 K, Liquid | – | 297.35 | –
[2], 500 K, Liquid | – | 305.31 | –
[2], 520 K, Liquid | – | 313.17 | –
[2], 540 K, Liquid | – | 320.92 | –
[2], 560 K, Liquid | – | 328.51 | –
[2], 580 K, Liquid | – | 335.9 | –
[2], 600 K, Liquid | – | 343.02 | –
[2], 620 K, Liquid | – | 349.87 | –
[2], 640 K, Liquid | – | 356.47 | –
[2], 660 K, Liquid | – | 362.89 | –
[2], 680 K, Liquid | – | 369.38 | –
[2], 700 K, Liquid | – | 376.44 | –

Conditions | Critical temperature, Liquid [K] | mass density, 323.14 K [kg/m3] | mass density, 348.13 K [kg/m3] | mass density, 373.12 K [kg/m3] | mass density, 398.12 K [kg/m3] | mass density, 423.11 K [kg/m3] | mass density, 448.11 K [kg/m3] | mass density, 473.11 K [kg/m3] | mass density, 498.11 K [kg/m3]
DTA | 787 | – | – | – | – | – | – | – | –
Liquid | – | 1049.3 | 1029 | 1009.5 | 988.5 | 967.8 | 947.5 | 926.6 | 904

Conditions | Molar enthalpy of transition or fusion [kcal/mol] | Triple point temperature [K]
Crystal | – | 246.94
[1] | 2.565 | –

molar heat capacity [J/K/mol], [2], Vacuum adiabatic calorimetry
Conditions | Crystal | Liquid
5 K | 0.45 | –
6.105 K | 0.81 | –
7.027 K | 1.26 | –
8.004 K | 1.86 | –
9.004 K | 2.64 | –
10 K | 3.53 | –
10.06 K | 3.58 | –
11.21 K | 4.73 | –
12.47 K | 6.05 | –
13.87 K | 7.66 | –
15.42 K | 9.47 | –
17.14 K | 11.51 | –
19.04 K | 13.71 | –
20 K | 14.8 | –
21.13 K | 16.07 | –
23.44 K | 18.64 | –
25.98 K | 21.32 | –
28.81 K | 24.19 | –
30 K | 25.37 | –
31.94 K | 27.23 | –
35.44 K | 30.44 | –
39.36 K | 33.85 | –
40 K | 34.39 | –
43.73 K | 37.46 | –
48.59 K | 41.21 | –
50 K | 42.28 | –
52.43 K | 44.08 | –
53.97 K | 45.21 | –
57.17 K | 47.47 | –
59.94 K | 49.35 | –
60 K | 49.4 | –
62.72 K | 51.23 | –
69 K | 55.27 | –
70 K | 55.87 | –
75.99 K | 59.46 | –
80 K | 61.81 | –
83.66 K | 63.9 | –
86.44 K | 65.46 | –
90 K | 67.47 | –
91.89 K | 68.5 | –
94.09 K | 69.68 | –
100 K | 72.87 | –
100.75 K | 73.28 | –
103.06 K | 74.5 | –
112.71 K | 79.57 | –
120 K | 83.32 | –
123.65 K | 85.25 | –
135.63 K | 91.49 | –
140 K | 93.7 | –
147.53 K | 97.64 | –
160 K | 104.11 | –
160.44 K | 104.42 | –
170 K | – | 184.91
174.36 K | 111.83 | –
175.64 K | 112.44 | –
175.79 K | – | 185.73
180 K | 114.69 | 186.36
181.22 K | – | 186.55
186.72 K | – | 187.58
186.91 K | 118.52 | –
188.79 K | 119.55 | –
199.75 K | 125.65 | –
200 K | 125.52 | 190.48
203.2 K | 127.63 | –
212.46 K | 132.96 | –
215.19 K | 134.54 | –
220 K | 136.62 | 195.81
224.46 K | 140.5 | –
225.29 K | 140.97 | –
232.54 K | – | 199.61
235.37 K | 150.91 | –
238.7 K | – | 201.71
240 K | 147.98 | 202.12
245.88 K | – | 204
246.94 K | 151.99 | 204.38
253.58 K | – | 206.7
253.72 K | – | 206.81
254.07 K | – | 206.89
256.36 K | – | 207.75
257.67 K | – | 208.16
260 K | – | 208.99
265.24 K | – | 210.84
269.69 K | – | 212.52
280 K | – | 216.4
282.82 K | – | 217.48
296.93 K | – | 222.97
298.15 K | – | 223.45
300 K | – | 224.18
310.97 K | – | 228.56
312.23 K | – | 229.08
320 K | – | 232.22
326.77 K | – | 234.98
340 K | – | 240.4
341.89 K | – | 241.17
357.58 K | – | 247.68
360 K | – | 248.69
373.8 K | – | 254.38
380 K | – | 256.96
389.63 K | – | 260.93
400 K | – | 265.18
405.69 K | – | 267.5
420 K | – | 273.33
422.45 K | – | 274.32
437.11 K | – | 280.26
440 K | – | 281.4
